Experiments:
HEC-1-A cell line [1] = assay: Antioxidant activity assay (ROS by FACS); format: cell-based, human
Protocol: They were used in different concentrations (i.e. 40 nM, 80 nM, 170 nM and 340 nM, corresponding respectively to 9.4×10^−9 g/ml, 18×10^−9 g/ml, 40×10^−9 g/ml and 80×10^−9 g/ml).
(§1) HEC-1A cells were obtained by ATCC and culture following instructions of the provider.
(§2) HEC-1-A is an epithelial stabilized cell line isolated by H. Kuramoto from adenocarcinoma patient (21), which provide a valuable model to study endometrial epithelial cell in vitro (22).
Reactive Oxidative Substances (ROS) were measured by FACS as previously described by Italiano et al. (23) in two independent replicates.

HEC-1-A cell line [2] = assay: Apoptosis assay (Propidium Iodide staining and FACS, sub-G1 events); format: cell-based, human; conditions: 24 hours
Protocol: as §1, §2
The apoptosis (% cell death) of the endometrial cells is a physiological phenomenon generally observed at 10-20% rate during cell culture.
Apoptosis levels were assayed by Propidium Iodide staining and FACS analysis. Percentage of sub-G1 events is shown for one of two experiments performed.

[3] = tested on: patients subjected to assisted fertilization; assay: Clinical study 1: multi-centre study, endometrial irrigation with melatonin in culture medium at oocyte retrieval; format: in vivo, human
Text: (§3) Said culture medium is normally used to improve cleavage, differentiation and expansion in vitro of blastocyst. The medium contains D-glucose, all the 20 essential L-amino acids, L-taurine, Gentamicin, human serum albumin, calcium lactate, calcium pantothenate; sodium chloride, sodium bicarbonate and sodium pyruvate; potassium chloride, potassium phosphate; magnesium chloride, magnesium sulfate; purified water. Further characteristics of the culture medium: • pH: 7.5-7.8 (use of bicarbonate buffer) • Osmolarity: 280-290 mOsm/kg • Endotoxins: <0.4 EU/ml • MEA: ≥80% • 2) physiological solution (Clinical Trial 2)
In the logistic regression, OR corresponds to the antilogarithm on a natural basis of the regression coefficient β associated with each covariate in the regression model.
The value thus calculated expresses therefore the advantage obtained through each procedure, irrespective of the other conditions.
The two-tailed confidence intervals at 95% (IF95%) of the OR have been calculated through the formula of […]
For the latter, the CI (confidence interval or trust interval) has been calculated through statistical analysis (IMPRUN. TXT) of linear regression with more variables of 95%.

[4] = tested on: patients subjected to assisted reproduction; assay: Clinical study 2: single centre study, endometrial washing with melatonin in sterile physiological solution; format: in vivo, human
Text: as §3
Restricted criteria of inclusion have been used for selecting the patient population involved in the studies: • 3) age ≥20 and <44 years • 4) body mass index (BMI) ≥20 and ≤28 kg/m^2 • 5) Basal FSH≤19 UI/l • 6) Male and female factors
The second clinical study with a single prospective centre involved 64 patients in the group of control and 92 patients in the group of study.
In the case of the physiological solution, the catheter can be pre-filled with physiological solution supplemented with melatonin.
The catheter has been introduced in the internal uterine orifice with the same steps through which the operator carries out the conventional embryo-transfer (ET).
The single centre study involved 64 patients in the group of control and 92 patients in the group of study.
The primary endpoint of the study is the rate of clinical pregnancies (fetal heart) due to embryonic transfer (ET); the secondary endpoint is the rate of ongoing pregnancies and aborts.

endometrial tissue = assay: In vitro culture of endometrium with melatonin, visualization of pinopodes by electron microscopy (SEM); format: cell-based, human; conditions: co-culture from 3 to 5 days of endometrial tissue with permanent addition of melatonin
Protocol: The melatonin and the culture medium used are the same as those used for the in vivo study.
It has been used a field emission at high resolution electron microscope, FE HITACHI S 4000 model, operating at […].
Soon after retrieval from the patient, small pieces of endometrial tissue of about 1 mm in size have been placed in a fixing solution composed of paraformaldehyde 1% and glutaraldehyde 0.5% in buffer cacodylate 0.1 M pH 7.2 for 3 hours.
After this fixing the pieces are washed in PBS 20 min×3 times (1 hour total) and then the post fixing is carried out in a solution of osmium tetroxide 2% and potassium ferrocyanide 2.5%.
The preparation is kept in the dark for 3 hours to be then accurately washed rotating in PBS, with 4 replacements of 20 min each.
It follows dehydration of the samples of tissue with acetone in ascending succession with 3 replacements in 1 hour for each gradation 50%-70%-80%-90%-95% and 2 replacements with pure acetone. […]
The samples are fixed through a special electrically conductive double sided adhesive and for their arrangement two very thin needles are used and the preparation is ready to be observed with scanning electron microscope (SEM). […]

Ishikawa cells = conditions: effect produced through MT2 receptors; reference (7); cited from earlier work
[5] = 170 nM (40 ng/ml) compound, H2O2 200 mcg/ml
[6] = number of patients out of 92 ET

SMILES | protection of cell line from oxidation (ROS, FACS) (HEC-1-A cell line [1]; [5]) | anti-oxidative effect (ROS, FACS) (HEC-1-A cell line [1]; dose increased up to 340 nM, H2O2 200 mcg/ml, data not shown) | effect on apoptosis (% cell death, sub-G1) (HEC-1-A cell line [2]; up to concentration of 170 nM) | effect on apoptosis (% cell death, sub-G1) (HEC-1-A cell line [2]; at 170 and 340 nM) | number of pregnancies with respect to the other two groups ([3]; irrigation or washing with melatonin vs physiological solution and no irrigation) | result of endometrial irrigation at lower concentration ([3]; preceding studies with one third and the half of the final concentration 10×10^−9 g/ml, not shown data) | rate of clinical pregnancies and ongoing pregnancies vs the group of control ([4]; endometrial washing with solutions containing melatonin, infertile female population) | Aborts ([4]; group of study) | BHCG Positive (on total of ET) ([4]; group of study, 92 ET) | rate of ongoing pregnancies (Ongoing Pregnancy/ET) ([4]; group of study, 92 ET) | rate of clinical pregnancies (Clinical Pregnancy/ET) ([4]; group of study, 92 ET, melatonin 10×10^−9 g/ml in physiological solution) | BHCG Positive (on total of ET), No [4, 6] | Clinical Pregnancy/ET, No [4, 6] | Ongoing Pregnancy/ET, No [4, 6] | Aborts, No ([4]; number of patients, group of study) | pinopodes (SEM) with respect to the culture of control (endometrial tissue) | anti-oxidative effect (ROS, FACS) (HEC-1-A cell line [1]; 170 nM (40 ng/ml) compound, H2O2 20 mcg/ml) | effect on apoptosis (% cell death, sub-G1) (HEC-1-A cell line [2]; all the concentrations tested (80, 170, 340 nM)) | proliferation of atypical endometrial cells (Ishikawa) (Ishikawa cells)
COc1cc2c(CCNC(C)=O)c[nH]c2cc1O [6-hydroxy-melatonin, 6-hydroxymelatonin] | does not | anti-oxidative effect of this analogue is reached | no effect on apoptosis | – | – | – | – | – | – | – | – | – | – | – | – | – | – | – | –
COc1ccc2cccc(CCNC(C)=O)c2c1 [agomelatine] | continued to protect cell line from oxidation | – | – | protective effect | – | – | – | – | – | – | – | – | – | – | – | – | – | – | –
COc1ccc2[nH]cc(CCNC(C)=O)c2c1 [melatonin, N-acetyl-5-methoxytryptamine] | continued to protect cell line from oxidation | – | – | – | double the number of pregnancies | without giving the same results | double | 11.8% | 44.6% | 32.6% | 37% | 41 | 34 | 30 | 4 | unquestionable increase of pinopodes | same anti-oxidative effect | protective effect on apoptosis | inhibits proliferation

— patent US20180303798A1 (Ares Trading S.A., priority 2012, published 2018)
